This is an account of results in patent US20110136867A1, “Treatment of Synucleinopathies” (priority 2006, published 2011).

Series [1] relates to α-synuclein. Briefly: α-synuclein accumulation in SH-SY5Y cells infected with α-synuclein-expressing adenovirus (Western blotting, normalized against actin). It counts as cell-based. The procedure:
Western Blotting: Following transfer of SDS gels onto NC membrane, all membranes were blocked with 5% non-fat milk in TBST (50 mM Tris-HCl pH7.4, 150 mM NaCl, 0.1% Tween 20), and incubated with primary antibody overnight with 1% BSA in TBST, washed three times with TBST, and incubated with horseradish peroxidase-conjugated secondary antibody for 1 hour (Promega). Bound antibodies were detected using enhanced chemiluminascence (NEM).
Since α-synuclein neurotoxicity is dose-dependent, it follows that accumulation of α-synuclein, caused by UCH-L1 farnesylation, should promote its toxicity. […] These cells express high endogenous levels of UCH-L1. […] The unit of y-axis is 10^5 /ml. (F) Cell viability was assessed by the amount of metabolic activity using MTT assay. […] The effect of FTI-277 on the α-synuclein accumulation in the SH-SY5Y infected with α-synuclein-expressing adenovirus were analyzed by Western blotting (B) and the amount of α-synuclein (C) was quantified using NIH Image program and normalized against the amount of actin.

For series [2], the system named is SH-SY5Y cells overexpressing α-synuclein. In words: α-synuclein toxicity in SH-SY5Y cells infected by α-synuclein-expressing adenovirus (Trypan blue viable cell counting, MTT assay). Format: cell-based. The procedure: Viral Infection: Viral infection and MTT assay in SH-SY5Y cells: The viruses were amplified and purified according to the published procedure. SH-SY5Y cells were grown on 100 mm petri-dishes and induced with 100 nM retinoic acid for 3-5 days before the virus infection with M.I.O at 75. Viruses were diluted with DPBS to desired M.I.O. After four hours of incubation, 10 ml growth medium was added. On the second day, cells were splitted into 96-well plates and treated with compounds for next 48 hours. The growth medium in each well was replaced with growth medium with 5 ug/ml MTT. Medium was removed after three hours incubation, and 200 ul isopropyl (0.04N HCl) was added into each well. The signal was read at 570 nm.
Viable cell counting: At stated time poins, SH-SY5Y cells were trypsinized with 100 ul trypsin-EDTA for 1 minute and neutralized with 400 ul growth medium. Cell suspension was made up by mixing 0.2 ml of cells in growth medium, 0.3 ml of HBSS and 0.5 ml of 0.4% Trypan Blue solution. Viable cell numbers were counted by standard cell counting chamber.
Since α-synuclein neurotoxicity is dose-dependent, it follows that accumulation of α-synuclein, caused by UCH-L1 farnesylation, should promote its toxicity. […] These cells express high endogenous levels of UCH-L1. […] The unit of y-axis is 10^5 /ml. (F) Cell viability was assessed by the amount of metabolic activity using MTT assay. […]

In series [3] the test system is primary dopaminergic cultures. Briefly: α-synuclein toxicity in primary dopaminergic cultures. Format: cell-based.
The subject of series [4] is UCH-L1. In words: Total amount and turnover of UCH-L1 in SH-SY5Y cells (pulse-chase). Format: cell-based.
Series [5] deals with UCH-L1. In words: Membrane bound and cytosolic UCH-L1 in SH-SY5Y cells (2D electrophoresis, Western blotting). The note with it: compared to DMSO. Format: cell-based. The procedure: 2D electrophoresis: For the isolation of total cellular protein, cultured SH-SY5Y cells maintained as described above were rinsed with ice-cold PBS. Cells were lysed in 1 ml dSDS buffer (50 mM Tris-HCl, pH 8.0 0.1% SDS) supplemented with protease inhibitor cocktail. Lysates were boiled for 3 min, and were treated with Dnase and Rnase as described. Lysates were precipitated with ice-cold acetone for at least 2 hours, and pellets were resuspended in 2D sample buffer (8M urea, 0.5% CHAPS, 0.2% DTT, 0.5% IPG buffer, 0.002% bromophenol blue). 2D electrophoresis was carried out according to manufacture's protocol (Amersham Life Science). 7 cm pH 4-7 strips were used. For SH-SY5Y membrane fraction, culture SH-SY5Y cells were rinsed with cold PBS and harvested with lysis buffer (50 mM Tris-HCl, pH 8.0, 1 mM ZnAc2, 250 mM sucrose). Lysate was passed through 25G needles for several times and spun at 1000 g for 5 min. […]
(§1) Western Blotting: Following transfer of SDS gels onto NC membrane, all membranes were blocked with 5% non-fat milk in TBST (50 mM Tris-HCl pH7.4, 150 mM NaCl, 0.1% Tween 20), and incubated with primary antibody overnight with 1% BSA in TBST, washed three times with TBST, and incubated with horseradish peroxidase-conjugated secondary antibody for 1 hour (Promega). Bound antibodies were detected using enhanced chemiluminascence (NEM). […]

Series [6] has as its system α-synuclein. In words: α-synuclein degradation assay in transfected COS-7 cells (quantitative Western blotting). It counts as cell-based. The note with it: COS-7 cells.
Description: Plasmids: C220S cDNA was generated by PCR site-specific mutagenesis. For the PCR, the 5′ primer is uchforw SEQ ID NO: 1 ([…]), and 3′ primer is uchc220s SEQ ID NO:2 (CTAAGA […]). Wt UCH-L1 served as the template. The PCR fragment was inserted into pcDNA vector. For S18YC220S mutant, S18Y UCH-L1 served as the template in PCR. For the FLAG tagged UCH-L1, the 5′ primer is FLAGuchforw SEQ ID NO: 3 ([…] CGATGGAG), and the 3′ primer is uchrev SEQ ID NO: 4 ([…]). Wt UCH-L1 or C220S served as the template. PCR fragment was purified and inserted into pcDNA vector. For the FLAG tagged UCH-L3, the 5′ primer is L3HindIII SEQ ID NO: 5 (CTAAAGCTTATGGACTAC […]), the 3′primer is L3XhoISAA SEQ ID NO: 6 ([…]). […] After 24 hours of incubation, the cells were lysed with Tris buffer (50 mM Tris, 2% SDS, 0.1% NP-40), and subjected to SDS-PAGE, followed by quantitative Western blotting.
as §1

Series [7] concerns Neuronal Specific Nuclear Protein (NeuN). In words: NeuN staining of cortex and hippocampus of α-synuclein transgenic mice. Format: in vivo. The settings on record: 90 days of treatment. The procedure: (§2) Farnesyl transferase inhibitors Zarnestra and OSI-754 were administered to mice of the α-synuclein transgenic line described in Masliah et al. (Masliah et al. “Dopaminergic loss and inclusion body formation in alpha-synuclein mice: implications for neurodegenerative disorders” Science 287(5456):1265-69, 2000; incorporated herein by reference). Animals from this line have α-synuclein neuronal inclusions in the cortex, hippocampus, and the olfactory bulb (Masliah et al. “Dopaminergic loss and inclusion body formation in alpha-synuclein mice: implications for neurodegenerative disorders” Science 287(5456):1265-69, 2000; incorporated herein by reference). Transgenic mice were orally administered either FTI in 20% cyclodextrin solution or the same volume of vehicle alone twice a day for 30 or 90 days. In some cases, non-transgenic mice also received vehicle twice a day for 30 to 90 days. At the end of treatment, mice were sacrificed, and the brains removed and hemisected. One hemisphere of each was fixed in 4% paraformaldehyde/PBS (pH 7.4), cryoperserved, then sectioned for histology. […]
Formation of α-synucleininclusions in the cortex and hippocampus was probed by immunostaining with an antibody for human α-synuclein. Cells positive for human α-synuclein were quantified. […]

Series [8] relates to α-synuclein. In words: Immunostaining for human α-synuclein in brain sections of α-synuclein transgenic mice. The note with it: 90 days, vs vehicle. Format: in vivo. The procedure: (§3) Farnesyl transferase inhibitors Zarnestra and OSI-754 were administered to mice of the α-synuclein transgenic line described in Masliah et al. (Masliah et al. “Dopaminergic loss and inclusion body formation in alpha-synuclein mice: implications for neurodegenerative disorders” Science 287(5456):1265-69, 2000; incorporated herein by reference). Animals from this line have α-synuclein neuronal inclusions in the cortex, hippocampus, and the olfactory bulb (Masliah et al. “Dopaminergic loss and inclusion body formation in alpha-synuclein mice: implications for neurodegenerative disorders” Science 287(5456):1265-69, 2000; incorporated herein by reference). Transgenic mice were orally administered either FTI in 20% cyclodextrin solution or the same volume of vehicle alone twice a day for 30 or 90 days. In some cases, non-transgenic mice also received vehicle twice a day for 30 to 90 days. At the end of treatment, mice were sacrificed, and the brains removed and hemisected. One hemisphere of each was fixed in 4% paraformaldehyde/PBS (pH 7.4), cryoperserved, then sectioned for histology. The other hemisphere was subdivided into four brain regions, including the cortex and hippocampus, that were homogenized and processed into cytoplasmic and membrane fractions.
Formation of α-synuclein inclusions in the cortex and hippocampus was probed by immunostaining with an antibody for human α-synuclein. Cells positive for human α-synuclein were quantified. […] These regions were also analyzed for ubiquitin-immunoreactive inclusions and by the Campbell Switzer method of silver staining. Ubiquitin is known to be a constituent of Lewy Bodies and in the α-synculein inclusions found in the transgenic mouse line used in the study (Masliah et al. “Dopaminergic loss and inclusion body formation in alpha-synuclein mice: implications for neurodegenerative disorders” Science 287(5456):1265-69, 2000; incorporated herein by reference). […] Campbell-Switzer staining is a general marker of Lewy Body type inclusions (Uchihara et al. “Silver stainings distinguish Lewy bodies and glial cytoplasmic inclusions: comparison between Gallyas-Braak and Campbell-Switzer methods” Acta Neuropathol. (Berl.) 110(3):255-60, 2005; incorporated herein by reference).

The test system of another series is farnesylated UCH-L1. In words: Quantitative Western Blot of farnesylated UCH-L1 in cortex membrane fraction of α-synuclein transgenic mice. It counts as in vivo. The note with it: 45 mg/kg twice a day, 30 days. The procedure: as §2
Farnesylated UCH-L1 in the cortex is contained in the membrane fraction. The amount of UCH-L1 was determined by quantitative Western Blot.
Total α-synuclein levels were analyzed by a sandwich ELISA assay. […] The amount of farnesylated UCH-L1 was determined by quantitative Western Blot, then normalized to actin.

In series [9] the test system is α-synuclein. Briefly: Sandwich ELISA of total α-synuclein in brain fractions of α-synuclein transgenic mice. The settings on record: vs vehicle. It counts as in vivo. The procedure: as §3
Total α-synuclein levels were analyzed by a sandwich ELISA assay similar to one previously described (El-Agnaf et al. “Detection of oligomeric forms of alpha-synuclein protein in human plasma as a potential biomarker for Parkinson's disease” FASEB J. 20(3):419-25, 2006; incorporated herein by reference). In the cortex of vehicle treated animals, α-synuclein protein levels in the α-synuclein transgenic line are greater than in non-transgenic mice in both cytoplasmic (FIG. 10) and membrane fractions (FIG. 11).

Setting [10] is: cortex, 45 mg/kg twice a day, 30 days.

“Also recorded” adds a separate entry of the source.

Turning to `COC(=O)[C@H](CCSC)NC(=O)c1ccc(NC[C@@H](N)CS)cc1-c1ccccc1` [FTI-277], the “amount of α-synuclein” value with α-synuclein [1] was “reducing the amount of α-synuclein accumulation; also recorded: reduced the amount of α-synuclein”. For the same compound, in series [2] (SH-SY5Y cells infected with α-synuclein adenovirus, data not shown), the “neuroprotective effect of FTI-277 on co-administration of the small-molecule UCH-L1 inhibitor” value was “eliminated”. Moreover, in series [2] (neuronally differentiated SH-SY5Y cells infected with α-synuclein adenovirus), the “α-synuclein toxicity / loss of cells” value is on record as “inhibits synuclein toxicity; also recorded: rescued α-synuclein toxicity; also recorded: significantly decreased loss of cells”. Moreover, the α-synuclein toxicity entry in series [3] is on record as “inhibit α-synuclein toxicity”. The “total amount of UCH-L1” value in the series with UCH-L1 [4] is on record as “reduced the total amount of UCH-L1”. Further, in the series on UCH-L1 [4] (pulse-chase experiment not shown), the “rate of turnover of UCH-L1” value is “increased its rate of turnover”. For the same compound, in the series with UCH-L1 [5], the “amount of cytosolic UCH-L1” value is “without affecting” and the “amount of membrane bound UCH-L1” value is on record as “significant decrease; also recorded: decreased the amount of the membrane-associated species”. Further, the synuclein level result in the series on α-synuclein [6] is given as “lowers synuclein level”.
`C#Cc1cccc(-c2cc(=O)n(C)c3ccc(C(O)(c4ccc(Cl)cc4)c4cncn4C)cc23)c1` (stereo not drawn) [OSI-754]: the “neuronal morphology or density (NeuN staining)” value in series [7] is “did not affect neuronal morphology or density”. Further, the “α-synuclein-positive cells per mm^2” value with α-synuclein [8] (cortex, 9 mg/kg twice a day) is given as “fewer”; in the series on α-synuclein [8] (cortex, 45 mg/kg twice a day), “fewer”; with α-synuclein [8] (hippocampus, 9 mg/kg twice a day), “fewer”; with α-synuclein [8] (hippocampus, 45 mg/kg twice a day), “fewer”. The “amount of farnesylated UCH-L1, normalized to actin” value with farnesylated UCH-L1 was “decreased the amount of farnesylated UCH-L1”. The “α-synuclein protein levels, cytoplasmic fraction” value with α-synuclein [9] (cortex, 9 mg/kg twice a day, 90 days) is recorded as “lower α-synuclein protein levels”; with α-synuclein [9] (setting [10]) it was “lower α-synuclein protein levels”; in the series on α-synuclein [9] (cortex, 45 mg/kg twice a day, 90 days), “lower α-synuclein protein levels”. The “α-synuclein protein levels, membrane fraction” value is “lower α-synuclein protein levels” with α-synuclein [9] (setting [10]); “lower α-synuclein protein levels” in the series on α-synuclein [9] (hippocampus, 9 mg/kg twice a day, 90 days); “lower α-synuclein protein levels” in the series with α-synuclein [9] (hippocampus, 45 mg/kg twice a day, 90 days).
